Results taken from patent US11753403B2, “EIF4E inhibitors and uses thereof” (PIC Therapeutics, Inc., priority 2020, dated 2023).

These compounds were tested against Human eIF4E (aa 28-217) / biotin labeled 4G2 peptide (Homo sapiens (Human), UniProt P06730) (assay: Human eIF4E/4G2 binding assay (TR-FRET)). Conditions: Human eIF4E/4G2 TR-FRET binding assay; head says IC50, legend says EC50.
Procedure, shortened: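 Refolded His-tagged human eIF4E (aa 28-217), 82.5 nM working stock, preincubated 4 h at RT with compounds (10-point 2-fold series) in NaPi pH 6.5 buffer with DTT and gamma globulin. Biotin-4G2 peptide then added for 20 min, followed by Eu-streptavidin/APC-anti-His for 20 min; TR-FRET 665/615 nm ratio normalized, IC50 fitted.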

Sequence of Human eIF4E (aa 28-217) / biotin labeled 4G2 peptide (P06730 28-217): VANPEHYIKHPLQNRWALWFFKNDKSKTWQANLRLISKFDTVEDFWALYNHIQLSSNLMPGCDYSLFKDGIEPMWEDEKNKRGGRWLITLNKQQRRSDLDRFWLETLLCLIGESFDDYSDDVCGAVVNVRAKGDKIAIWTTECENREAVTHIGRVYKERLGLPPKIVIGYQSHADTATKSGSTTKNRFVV

`CCOC(=O)NC1CN(c2nc(-c3ccc(Cl)c(Cl)c3)c(CC(C)C)s2)C1=O` (stereo not drawn) [I-139, ethyl 1-(4-(3,4-dichlorophenyl)-5-isobutylthiazol-2-yl)-2-oxoazetidin-3-ylcarbamate] and `CCOC(=O)N1CCN(c2nc(-c3ccc(Cl)c(Cl)c3)c(CC(C)C)s2)CC1C(=O)O` (stereo not drawn) [I-245, 4-(4-(3,4-dichlorophenyl)-5-isobutylthiazol-2-yl)-1-(ethoxycarbonyl)piperazine-2-carboxylic acid] fall in the same range of IC50: 1000 to 10000 nM for the first, 1000 to 10000 nM for the second.

`CC(C)Cc1sc(Nc2ncc(-c3cccs3)cc2C(=O)O)nc1-c1ccc(OCC2CC2)c(Cl)c1` [I-332] and `CCOc1ccc(-c2nc(Nc3ncc(-c4cccs4)cc3C(=O)O)sc2CC(C)C)cc1Cl` [I-330] cannot be ordered by IC50: at most 1000 nM for the first, at most 1000 nM for the second.

`CC(C)Cc1sc(N2CCN(C(=O)c3ccccc3)C(C(=O)O)C2)nc1-c1ccc(Cl)c(Cl)c1` (stereo not drawn) [I-246, 1-benzoyl-4-(4-(3,4-dichlorophenyl)-5-isobutylthiazol-2-yl)piperazine-2-carboxylic acid] and `CC(C)Cc1sc(N2CCN(C(=O)OCc3ccccc3)C(C(=O)O)C2)nc1-c1ccc(Cl)c(Cl)c1` (stereo not drawn) [I-244, 1-(benzyloxycarbonyl)-4-(4-(3,4-dichlorophenyl)-5-isobutylthiazol-2-yl)piperazine-2-carboxylic acid] cannot be ordered by IC50: 1000 to 10000 nM for the first, at most 1000 nM for the second.

`COc1cccc(-c2nc(NCC(Cc3c[nH]c4ccccc34)C(=O)O)sc2C(C)C)c1` (stereo not drawn) [I-36] and `COc1cccc(-c2nc(NCC(Cc3ccccc3OC)C(=O)O)sc2C(C)C)c1` (stereo not drawn) [I-30] fall in the same range of IC50: 1000 to 10000 nM for the first, 1000 to 10000 nM for the second.

Compared with `CC(C)Cc1sc(N(CCC(=O)NCCNC(=N)N)Cc2ccccc2)nc1-c1ccc(Cl)c(Cl)c1` [I-197, 3-(benzyl(4-(3,4-dichlorophenyl)-5-isobutylthiazol-2-yl)amino)-N-(2-guanidinoethyl) propanamide], `CC(C)Cc1sc(N(CCC(N)=O)Cc2ccccc2)nc1-c1ccc(Cl)c(Cl)c1` [I-189] is higher in IC50: 1000 to 10000 nM for the first, over 10000 nM for the second. The first is the more potent here.

Compared with `O=C(O)CCN(Cc1ccccc1)c1nc(-c2ccc(Cl)c(Cl)c2)c(CN2CCC2)s1` [I-130], `COCc1sc(N(CCC(=O)O)Cc2ccccc2)nc1-c1ccc(Cl)c(Cl)c1` [I-120, 3-(benzyl(4-(3,4-dichlorophenyl)-5-(methoxymethyl)thiazol-2-yl)amino)propanoic acid] is lower in IC50: over 10000 nM for the first, 1000 to 10000 nM for the second.

First: COc1ccc(-c2nc(N(CCC(=O)O)Cc3ccccc3)sc2C(C)C)cc1 [I-76]
Second: Cc1ccc(-c2nc(N(CCC(=O)O)Cc3ccccc3)sc2C(C)C)cc1C [I-75]
The IC50 of the first is higher: over 10000 nM for the first, 1000 to 10000 nM for the second.

`CC(C)Cc1sc(N(CCC(=O)O)Cc2cccc3[nH]ccc23)nc1-c1ccc(Cl)c(Cl)c1` [I-53, 3-(((1H-indol-4-yl)methyl)(4-(3,4-dichlorophenyl)-5-isobutylthiazol-2-yl)amino)propanoic acid] and `CC(C)Cc1sc(N(CCC(=O)O)Cc2ccc[nH]2)nc1-c1ccc(Cl)c(Cl)c1` [I-110] fall in the same range of IC50: 1000 to 10000 nM for the first, 1000 to 10000 nM for the second.

Going from `CC(C)Cc1sc(N(CCC(=O)O)Cc2ccccc2)nc1-c1ccc(S(C)(=O)=O)cc1` [I-128, 3-(benzyl(5-isobutyl-4-(4-(methylsulfonyl)phenyl)thiazol-2-yl)amino)propanoic acid] to `CC(C)Cc1sc(N(CCC(=O)O)Cc2ccccc2)nc1-c1ccc(-c2ccsc2)cc1` [I-126, 3-(benzyl(5-isobutyl-4-(4-(thiophen-3-yl)phenyl)thiazol-2-yl)amino)propanoic acid], the IC50 falls from over 10000 nM to at most 1000 nM.

`CC(C)Cc1sc(NCC(CCCCN(C)C)C(=O)O)nc1-c1ccc(Cl)c(Cl)c1` (stereo not drawn) [I-145, 2-((4-(3,4-dichlorophenyl)-5-isobutylthiazol-2-ylamino)methyl)-6-(dimethylamino) hexanoic acid] and `CC(C)Cc1sc(N(CCC(=O)O)CCN(C)C)nc1-c1ccc(Cl)c(Cl)c1` [I-72] cannot be ordered by IC50: over 10000 nM for the first, over 10000 nM for the second.

`O=C(O)C(CNc1nc(-c2ccc(Cl)c(Cl)c2)c(CC2CC2)s1)Cc1ccccc1` (stereo not drawn) [I-179] and `C=C(C)c1sc(NCC(Cc2ccccc2)C(=O)O)nc1-c1ccc(Cl)c(Cl)c1` (stereo not drawn) [I-185, 2-benzyl-3-(4-(3,4-dichlorophenyl)-5-(prop-1-en-2-yl)thiazol-2-ylamino)propanoic acid] fall in the same range of IC50: 1000 to 10000 nM for the first, 1000 to 10000 nM for the second.

`COc1ccc(-c2nc(Nc3ncc(-c4cccs4)cc3C(=O)O)sc2CC(C)C)cc1` [I-333] and `CC(C)Cc1sc(Nc2ncc(-c3cccs3)cc2C(=O)O)nc1-c1ccc(OCCO)c(Cl)c1` [I-331] cannot be ordered by IC50: at most 1000 nM for the first, at most 1000 nM for the second.

`CC(C)Cc1sc(N(CCC(=O)O)Cc2ccc(Cl)cc2)nc1-c1ccc(Cl)c(Cl)c1` [I-109] and `CC(C)Cc1sc(N(CCCc2ccccc2)CCC(=O)O)nc1-c1ccc(Cl)c(Cl)c1` [I-96] cannot be ordered by IC50: 1000 to 10000 nM for the first, at most 1000 nM for the second.

`CC(C)c1sc(NCC(Cc2cccc(O)c2)C(=O)O)nc1-c1ccc(Cl)c(Cl)c1` (stereo not drawn) [I-4] and `CC(C)c1sc(NCC(Cc2cccc(F)c2)C(=O)O)nc1-c1ccc(Cl)c(Cl)c1` (stereo not drawn) [I-5] fall in the same range of IC50: 1000 to 10000 nM for the first, 1000 to 10000 nM for the second.

`CC(C)Cc1sc(-c2ccc(-c3cccnc3)c(C(=O)O)c2)nc1-c1ccc(Cl)c(Cl)c1` [I-226] and `CC(C)Cc1sc(-c2ccc(Br)c(C(=O)O)c2)nc1-c1ccc(Cl)c(Cl)c1` [I-224, 2-bromo-5-(4-(3,4-dichlorophenyl)-5-isobutylthiazol-2-yl)benzoic acid] cannot be ordered by IC50: at most 1000 nM for the first, 1000 to 10000 nM for the second.

`CC(C)Cc1sc(NCC(Cc2ccncc2)C(=O)O)nc1-c1ccc(Cl)c(Cl)c1` (stereo not drawn) [I-152] and `CC(C)Cc1sc(NCC(Cc2cccc(F)c2)C(=O)O)nc1-c1ccc(Cl)c(Cl)c1` (stereo not drawn) [I-22] cannot be ordered by IC50: 1000 to 10000 nM for the first, at most 1000 nM for the second.

`O=C(O)CCN(CCc1ccccc1)c1nc(-c2ccc(Cl)c(Cl)c2)c(C2CC2)s1` [I-57] and `CC(C)Cc1sc(N(CCC(=O)N2CCC(CN)CC2)Cc2ccccc2)nc1-c1ccc(Cl)c(Cl)c1` [I-135] cannot be ordered by IC50: at most 1000 nM for the first, 1000 to 10000 nM for the second.

`CC(C)Cc1sc(N(CCC(=O)N(C)CCN)Cc2ccccc2)nc1-c1ccc(Cl)c(Cl)c1` [I-132] and `CC(C)Cc1sc(NCC(CCc2ccccc2)C(=O)O)nc1-c1ccc(Cl)c(Cl)c1` (stereo not drawn) [I-23] cannot be ordered by IC50: 1000 to 10000 nM for the first, at most 1000 nM for the second.

`CC(C)Cc1sc(NCC(Cc2ccc(C(N)=O)cc2)C(=O)O)nc1-c1ccc(Cl)c(Cl)c1` (stereo not drawn) [I-166, 2-(4-carbamoylbenzyl)-3-(4-(3,4-dichlorophenyl)-5-isobutylthiazol-2-ylamino)propanoic acid] and `CC(C)Cc1sc(Nc2cccnc2C(=O)O)nc1-c1ccc(Cl)c(Cl)c1` [I-234, 3-(4-(3,4-dichlorophenyl)-5-isobutylthiazol-2-ylamino)picolinic acid] fall in the same range of IC50: 1000 to 10000 nM for the first, 1000 to 10000 nM for the second.

`CC(C)Cc1sc(Nc2cc(-c3ccccc3)sc2C(=O)O)nc1-c1ccc(Cl)c(Cl)c1` [I-270] and `CC(C)Cc1sc(Nc2ccncc2C(=O)O)nc1-c1ccc(Cl)c(Cl)c1` [I-254] cannot be ordered by IC50: at most 1000 nM for the first, 1000 to 10000 nM for the second.

`CC(C)c1sc(NCC(CCc2ccccc2)C(=O)O)nc1-c1ccc(Cl)cc1` (stereo not drawn) [I-43] and `CC(C)Cc1sc(Nc2cc(NC(=O)c3ccccc3)cc(C(=O)O)c2)nc1-c1ccc(Cl)c(Cl)c1` [I-217] cannot be ordered by IC50: 1000 to 10000 nM for the first, at most 1000 nM for the second.

`CC(C)Cc1sc(Nc2ccsc2C(=O)NCCN)nc1-c1ccc(Cl)c(Cl)c1` [I-276, N-(2-aminoethyl)-3-(4-(3,4-dichlorophenyl)-5-isobutylthiazol-2-ylamino)thiophene-2-carboxamide] and `CC(C)Cc1sc(Nc2nccc(Cl)c2C(=O)O)nc1-c1ccc(Cl)c(Cl)c1` [I-242] cannot be ordered by IC50: 1000 to 10000 nM for the first, at most 1000 nM for the second.

For `O=C(O)c1cccc(-c2nc(Cc3ccc(Cl)c(Cl)c3)cs2)c1` [I-223, 3-(4-(3,4-dichlorobenzyl)thiazol-2-yl)benzoic acid], the IC50 was 1000 to 10000 nM.
